For 13 molecules, IC50 results are on record in patent publication US20230348495A1, “A COMPOUND HAVING INHIBITORY ACTIVITY AGAINST KRAS G12D MUTATION” (TAIHO PHARMACEUTICAL CO., LTD., priority 2019, published 2023).

SMILES strings stand for the structures.

The target of one assay is KRAS G12D (Homo sapiens (Human), UniProt P01116, G12D). Nature of the assay: Inhibitory activity on KRAS G12D nucleotide (GDP-GTP) exchange reaction in vitro (SOS1-dependent, BODIPY FL GDP). The assay is classed as biochemical. To be noted: BODIPY FL GDP-bound KRAS G12D, compound 25° C. 1 hour, then SOS1 and GMPPNP 30 minutes. The source says:
Test Example 1: Evaluation of inhibitory activity of compounds on KRAS G12D nucleotide (GDP-GTP) exchange reaction in vitro
Recombinant KRAS G12D (conjugated N-terminus His6-tag, TEV protease cleavage site and KRAS G12D residues 1-169 (SEQ ID NO: 1), prepared by the method described as below) and cleaved recombinant SOS1 (residues 564-1049(SEQ ID NO: 2), prepared by the method as below) proteins were expressed in E. coli and purified by affinity chromatography.
To prepare the recombinant KRAS G12D, the codon-optimized DNA sequence for the recombinant KRAS G12D (conjugated N-terminus His6-tag, TEV protease cleavage site and KRAS G12D residues 1-169 (SEQ ID NO: 3))was synthesized by GeneArt Technology (Life Technologies, Carlsbad, CA, US). The construct was subcloned into the expression vector pET28a and transformed into Escherichia coli BL21 (DE3) strains (Novagen, Madison, WI, US).
The transformed strain was cultivated in 2 L Luria Broth medium with 25 μg/mL kanamycin at a temperature of 37° C. to a density of 0.6 (OD600), then induced for expression with […] IPTG and further cultivated for 4 h. The cell pellet was resuspended in ice-cold lysis buffer containing 50 mM Tris-HCl (pH 7.5), 200 mM NaCl, and 100 μM TCEP (tris(2-carboxyethyl)phosphine).
After sonication, the disrupted debris was removed by centrifugation. The supernatant was applied on to Ni-NTA affinity gels, and the recombinant human KRAS (G12D) eluted fraction was collected. The buffer of the collected fraction was exchanged to the buffer containing 50 mM Tris-HCl (pH 7.5), 200 mM NaCl, 10% Glycerol, and 5 mM DTT by PD-10 column (GE-Healthcare, Chicago, IL, US).
To prepare the cleaved recombinant SOS1, the codon optimized DNA sequences for the recombinant SOS1 (residues 564-1049 with a conjugated N-terminus His6-tag and TEV protease cleavage site (SEQ ID NO: 4)) was synthesized by GeneArt Technology (Life Technologies). The construct was subcloned into the expression vector pET28a and transformed into Escherichia coli BL21 (DE3) strains (Novagen, Madison, WI, USA).
The transformed strain was cultivated in 2 L Terrific Broth medium with 25 μg/mL kanamycin at a temperature of 37° C. to a density of 0.8 (OD600), then shifted to a temperature of 16° C., induced for expression with […] IPTG, and further cultivated for 16 h. The cell pellet was resuspended in ice-cold lysis buffer containing 50 mM Tris-HCl (pH 7.5), 200 mM NaCl, and 100 μM TCEP.
After sonication, the disrupted debris was removed by centrifugation. The supernatant was applied on to Ni-NTA affinity gels, and the recombinant human SOS1 eluted fraction was collected. Then, His6-tagged TEV protease was added to the collected fraction, dialyzed with the ice-cold lysis buffer for 16 h at a temperature of 4° C., and applied on to Ni-NTA affinity gels. The flow-through fraction containing the tag-cleavaged recombinant human SOS1 was collected. The buffer of the collected fraction was exchanged to the buffer containing 50 mM Tris-HCl (pH 7.5), 200 mM NaCl, 10% Glycerol, and 5 mM DTT by PD-10 column (GE-Healthcare).
To prepare BODIPY FL (fluorescent dye) GDP-bound KRAS G12D protein, 50 μM KRAS G12D protein was incubated with 0.5 mM BODIPY FL GDP in a loading buffer (20 mM Tris-HCl (pH 7.5), 50 mM NaCl, 1 mM DTT and 2.5 mM EDTA) for 1 hour on ice. After the incubation, MgCl2 was added to a final concentration of 10 mM, followed by incubation at room temperature for 30 minutes.
The mixture was allowed to pass through a NAP-5 column to remove free nucleotides and purified BODIPY FL GDP-bound KRAS G12D protein was used for compound evaluation.
For the measurement of the inhibitory activity of compounds on GDP-GTP exchange rate of recombinant KRAS G12D, BODIPY FL GDP-bound KRAS G12D protein was incubated with various concentrations of compound in a reaction buffer (20 mM Tris-HCl (pH 7.5), 100 mM NaCl, 1 mM MgCl2, 2 mM DTT, 0.1% Tween 20) at 25° C. for 1 hour. […]

For assay [1], the system named is KRAS-G12D mutant cell line (A-427). Kind of assay: Growth inhibition activity on KRAS-G12D mutant cell line (A-427), CellTiter-Glo 3D. The assay is classed as cell-based. Particulars: Homo sapiens, 72 h, A-427 cells, 3-day culture with compound, read-out: A427 CTX IC50. As to the method: Test Example 2: A measurement test of growth inhibition activity on KRAS-G12D mutant cell line (A-427) (in vitro) A-427 cells (ATCC, Cat #: HTB-53), which are a KRAS-G12D mutant human lung cancer cell line, were suspended in a 10% fetal bovine serum-containing E-MEM medium (manufactured by Fujifilm Wako Pure Chemical Corporation). The cell suspension was seeded into each well of a 384-well U bottom microplate and cultured in an incubator containing 5% CO2 gas at 37° C. for 1 day.
The compound of the present invention was dissolved in DMSO, and the test compound was diluted with DMSO to give a concentration 500 times the final concentration. The solution of the test compound in DMSO was diluted with the medium used for suspending cells and added to each well of the cell-culture plate to give a DMSO final concentration of 0.2%, followed by culture in an incubator containing 5% CO2 gas at 37° C. for another 3 days. The cell count after a 3-day culture in the presence of the compound was measured using CellTiter-Glo 3D Reagent (manufactured by Promega Corporation).
All wells were added with CellTiter-Glo 3D Reagent and mixed for 10 minutes. 30 minutes after mixing, luminescence was measured by a plate reader. The growth inhibition rate was calculated from the following equation, and the concentration of the test compound at which 50% inhibition was achieved (IC50 (μM)) was determined.
Growth Inhibition Rate(%)=(C−T)/(C)×100
T: the emission intensity in a well into which a test compound was added.
C: the emission intensity in a well into which a test compound was not added.
(In ATP-based viability assays light output follows the ATP content of the culture.)

Chain of KRAS G12D (P01116 other isoform, or with tags, fused parts or gaps G12D (already in the parent)): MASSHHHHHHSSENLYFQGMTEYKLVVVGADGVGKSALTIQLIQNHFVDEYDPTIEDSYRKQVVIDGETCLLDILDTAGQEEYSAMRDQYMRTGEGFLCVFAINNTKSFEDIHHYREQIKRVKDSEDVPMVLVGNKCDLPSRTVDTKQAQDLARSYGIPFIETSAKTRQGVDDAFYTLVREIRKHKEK

For orientation: IC50 means the midpoint of a concentration-inhibition curve. Turning to `Cc1cccc2cc(O)cc(N3CCc4c(nc(OCC5(CN6CCOCC6)CC5)nc4N4CC5CCC(C4)N5)C3)c12` [Example 6, 4-(4-(3,8-diazabicyclo[3.2.1]octan-3-yl)-2-((1-(morpholinomethyl)cyclopropyl)methoxy)-5,8-dihydropyrido[3,4-d]pyrimidin-7(6H)-yl)-5-methylnaphthalen-2-ol], the IC50 against KRAS G12D is 3.2 nM; in assay [1] it was 550 nM.

With `Oc1cc(N2CCc3c(nc(OCC4(CN5CC[C@@H](F)C5)CC4)nc3N3CC4CCC(C3)N4)C2)c2c(Br)cccc2c1` [Example 2, 4-(4-(3,8-diazabicyclo[3.2.1]octan-3-yl)-2-((1-(((R)-3-fluoropyrrolidin-1-yl)methyl)cyclopropyl)methoxy)-5,8-dihydropyrido[3,4-d]pyrimidin-7(6H)-yl)-5-bromonaphthalen-2-ol], the half-maximal inhibitory concentration (IC50) on KRAS G12D was found to be 1.5 nM; in assay [1], 540 nM.

In the case of `C=Cc1cccc2cc(O)cc(C(=O)N3Cc4nc(OCC5(CN6CC[C@@H](F)C6)CC5)nc(N5CC6CCC(C5)N6)c4C3)c12` [Example 34, (4-(3,8-diazabicyclo[3.2.1]octan-3-yl)-2-((1-(((R)-3-fluoropyrrolidin-1-yl)methyl)cyclopropyl)methoxy)-5,7-dihydro-6H-pyrrolo[3,4-d]pyrimidin-6-yl) (3-hydroxy-8-vinylnaphthalen-1-yl)methanone], the IC50 against KRAS G12D came out at 14.1 nM; in assay [1], 7140 nM.

Take `CN(C)CC1(COc2nc3c(c(N4C[C@@H]5CC[C@H]4CN5)n2)CCN(c2cc(O)cc4cccc(Br)c24)C3)CC1` [Example 20, 4-(4-((1S,4S)-2,5-diazabicyclo[2.2.2]octan-2-yl)-2-((1-((dimethylamino)methyl)cyclopropyl)methoxy)-5,8-dihydropyrido[3,4-d]pyrimidin-7(6H)-yl)-5-bromonaphthalen-2-ol]: the 50% inhibitory concentration (IC50) against KRAS G12D was determined as 3 nM; in assay [1], 1950 nM.

With `C#Cc1cccc2cc(N)nc(N3CCc4c(nc(OCC5(CN(C)C)CC5)nc4N4CC5CCC(C4)N5)C3)c12` [Example 36, 1-(4-(3,8-diazabicyclo[3.2.1]octan-3-yl)-2-((1-((dimethylamino)methyl)cyclopropyl)methoxy)-5,8-dihydropyrido[3,4-d]pyrimidin-7(6H)-yl)-8-ethynylisoquinolin-3-amine], the concentration for half-maximal inhibition (IC50) on KRAS G12D is 27.4 nM; in assay [1], over 10000 nM.

`CN1CCC[C@H]1COc1nc(N2CC3CCC(C2)N3)c2ccc(-c3cc(O)cc4ccccc34)c(F)c2n1` [Example 16, 4-(4-(3,8-diazabicyclo[3.2.1]octan-3-yl)-8-fluoro-2-(((S)-1-methylpyrrolidin-2-yl)methoxy)quinazolin-7-yl) naphthalen-2-ol]: the half-inhibitory concentration (IC50) on KRAS G12D came out at 10.2 nM; in assay [1], 2390 nM.

Consider `C#Cc1cccc2cc(O)cc(C(=O)N3Cc4nc(OCC5(CN6CCOCC6)CC5)nc(N5CC6CCC(C5)N6)c4C3)c12` [Example 10, (4-(3,8-diazabicyclo[3.2.1]octan-3-yl)-2-((1-(morpholinomethyl)cyclopropyl)methoxy)-5,7-dihydro-6H-pyrrolo[3,4-d]pyrimidin-6-yl) (8-ethynyl-3-hydroxynaphthalen-1-yl)methanone], for which the values for the IC50 (against KRAS G12D; in assay [1]) were 1.5 nM and 6620 nM, respectively.

Take `O=C(c1cc(O)cc2cccc(I)c12)N1Cc2nc(OCC3(CN4CCOCC4)CC3)nc(N3CC4CCC(C3)N4)c2C1` [Example 13, (4-(3,8-diazabicyclo[3.2.1]octan-3-yl)-2-((1-(morpholinomethyl)cyclopropyl)methoxy)-5,7-dihydro-6H-pyrrolo[3,4-d]pyrimidin-6-yl) (3-hydroxy-8-iodonaphthalen-1-yl)methanone]: the IC50 against KRAS G12D came out at 5.5 nM; in assay [1], 8550 nM.

`CCc1cc2c(N3CC4CCC(C3)N4)nc(OCC3(CN(C)C)CC3)nc2c(F)c1-c1cc(O)cc2ccccc12` [Example 19, 4-(4-(3,8-diazabicyclo[3.2.1]octan-3-yl)-2-((1-((dimethylamino)methyl)cyclopropyl)methoxy)-6-ethyl-8-fluoroquinazolin-7-yl)naphthalen-2-ol]: the half-maximal inhibitory concentration (IC50) against KRAS G12D came out at 7.1 nM; in assay [1] it was 1590 nM.

As to `Oc1cc(N2CCc3c(nc(OCC4(CN5CCOCC5)CC4)nc3N3CC4CCC(C3)N4)C2)c2c(I)cccc2c1` [Example 9, 4-(4-(3,8-diazabicyclo[3.2.1]octan-3-yl)-2-((1-(morpholinomethyl)cyclopropyl)methoxy)-5,8-dihydropyrido[3,4-d]pyrimidin-7(6H)-yl)-5-iodonaphthalen-2-ol], the results for the IC50 (on KRAS G12D; in assay [1]) were 0.7 nM and 350 nM, respectively.

Regarding `O=C(c1cc(O)cc2cccc(I)c12)N1Cc2nc(OCC3(CN4CC[C@@H](F)C4)CC3)nc(N3CC4CCC(C3)N4)c2C1` [Example 12, (4-(3,8-diazabicyclo[3.2.1]octan-3-yl)-2-((1-(((R)-3-fluoropyrrolidin-1-yl)methyl)cyclopropyl)methoxy)-5,7-dihydro-6H-pyrrolo[3,4-d]pyrimidin-6-yl) (3-hydroxy-8-iodonaphthalen-1-yl)methanone], the values for the IC50 (against KRAS G12D; in assay [1]) were 4.4 nM and 8150 nM, respectively.

In the case of `C#Cc1cccc2cc(O)cc(C3Cc4nc(OCC5(CN(C)C)CC5)nc(N5CC6CCC(C5)N6)c4CO3)c12` (centres unmarked) [Example 23, 4-(4-(3,8-diazabicyclo[3.2.1]octan-3-yl)-2-((1-((dimethylamino)methyl)cyclopropyl)methoxy)-7,8-dihydro-5H-pyrano[4,3-d]pyrimidin-7-yl)-5-ethynylnaphthalen-2-ol], the IC50 was 3 nM against KRAS G12D and 1470 nM in assay [1].

As for `C#Cc1cccc2cc(O)cc(C3Cc4nc(OCC5(CN6CCOCC6)CC5)nc(N5CC6CCC(C5)N6)c4CO3)c12` (centres unmarked) [Example 33, 4-(4-(3,8-diazabicyclo[3.2.1]octan-3-yl)-2-((1-(morpholinomethyl)cyclopropyl)methoxy)-7,8-dihydro-5H-pyrano[4,3-d]pyrimidin-7-yl)-5-ethynylnaphthalen-2-ol], the 50% inhibitory concentration (IC50) was 11.3 nM against KRAS G12D and 1270 nM in assay [1].
